Results taken from patent publication US8716326B2, “Isoindolinone derivatives, preparation method thereof and a pharmaceutical composition comprising same” (Korea Research Institute of Chemical Technology, priority 2009, dated 2014).

Tested on: Runx2
Experiment: Runx2 activity, 6xOSE2-Luc luciferase reporter in transfected C2C12 cells
Type: cell-based, Mouse
Settings: 24 hrs; for fold induction at 2.5 µM / fold induction at 5 µM / fold induction at 10 µM / fold induction at 20 µM: Mus musculus, read-out: luciferase activity relative to control set as 1
Summary of the method: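 C2C12 mouse premyoblasts carrying the 6xOSE2-Luc reporter (six tandem Runx2-binding OSE2 sites in pGL3) switched to 5% FBS DMEM after 24 h and treated with compound at 2.5, 5.0, 10 or 20 μM. After 24 h, lysate luciferase measured by dual-luciferase assay, expressed relative to DMSO vehicle set as 1.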

Row | SMILES | fold induction at 2.5 µM (2.5 μM) | fold induction at 5 µM (5.0 μM) | fold induction at 10 µM (10 μM) | fold induction at 20 µM (20 μM) | luciferase activity relative to control set as 1 (2.5 μM) | luciferase activity relative to control set as 1 (5.0 μM) | luciferase activity relative to control set as 1 (10 μM) | luciferase activity relative to control set as 1 (20 μM)
1 | Nc1ccccc1NC(=O)c1ccc(CN2Cc3c(cccc3-c3ccc4c(c3)OCO4)C2=O)cc1 [Example 19, N-(2-aminophenyl)-4-((4-(benzo[d][1,3]dioxol-6-yl)-1-oxoisoindolin-2-yl)methyl)benzamide] | 10.8 | 9.9 | 11.7 | 14 |  |  |  | 
2 | Cc1cc(C(=O)NCCCCCC(=O)Nc2ccccc2N)ccc1-c1ccncc1 [Example 89, N-(5-(2-aminophenylcarbamoyl)pentyl)-3-methyl-4-(4-pyridinyl)-benzamide] | 9.6 | 17.9 | 23.7 | 25.3 |  |  |  | 
3 | COc1ccc(-c2cccc(C(=O)NCCCCCC(=O)Nc3ccccc3N)c2C)c(OC)c1 [Example 82, N-(5-(2-aminophenylcarbamoyl)pentyl)-2-methyl-3-(2,4-dimethoxyphenyl)-benzamide] | 1.5 | 2.5 | 6 | 10.9 |  |  |  | 
4 | COc1cc2c(c(-c3ccc(C(F)(F)F)cc3)c1OC)CN(Cc1ccc(C(=O)Nc3ccccc3N)cc1)C2=O [Example 6, N-(2-aminophenyl)-4-((4-(4-(trifluoromethyl)phenyl)-5,6-dimethoxy-1-oxoisoindolin-2-yl)methyl)benzamide] | 14.2 | 18.3 | 17.2 | 9.3 |  |  |  | 
5 | COc1cc2c(c(-c3cccnc3)c1OC)CN(Cc1ccc(C(=O)Nc3ccccc3N)cc1)C2=O [Example 4, N-(2-aminophenyl)-4-((5,6-dimethoxy-1-oxo-4-(pyridin-3-yl)isoindolin-2-yl)methyl)benzamide] | 37 | 42.2 | 36.6 | 36.7 |  |  |  | 
6 | Nc1ccccc1NC(=O)c1ccc(CN2Cc3c(cccc3-c3cccnc3)C2=O)cc1 [Example 14, N-(2-aminophenyl)-4-((1-oxo-4-(pyridin-3-yl)isoindolin-2-yl)methyl)benzamide] | 12 | 15.7 | 15.4 | 16.9 |  |  |  | 
7 | COc1cc(C(=O)NCc2ccc(C(=O)Nc3ccccc3N)cc2)c(C)c(-c2cccnc2)c1OC [Example 76, N-(2-aminophenyl)-4-((2-methyl-3-(3-pyridinyl)-4,5-dimethoxy-benzamido)methyl)benzamide] | 4.5 | 8.5 | 20.8 | 32.9 |  |  |  | 
8 | COc1ccc(-c2cccc3c2CN(Cc2ccc(C(=O)Nc4ccccc4N)cc2)C3=O)cc1F [Example 24, N-(2-aminophenyl)-4-((4-(3-fluoro-4-methoxyphenyl)-1-oxoisoindolin-2-yl)methyl)benzamide] | 11.8 | 17.3 | 19.6 | 21.2 |  |  |  | 
9 | Nc1ccccc1NC(=O)c1ccc(CN2Cc3c(cccc3-c3ccc(C(F)(F)F)cc3)C2=O)cc1 [Example 13, N-(2-aminophenyl)-4-((4-(4-(trifluoromethyl)phenyl)-1-oxoisoindolin-2-yl)methyl)benzamide] | 7.9 | 8 | 9.3 | 7.2 |  |  |  | 
10 | COc1cc2c(c(-c3cc(C)cc(C)c3)c1OC)CN(Cc1ccc(C(=O)Nc3ccccc3N)cc1)C2=O [Example 3, N-(2-aminophenyl)-4-((5,6-dimethoxy-4-(3,5-dimethylphenyl)-1-oxoisoindolon-2-yl)methyl)benzamide] |  |  |  |  | 25.2 fold | 25.7 fold | 22.7 fold | 18.7 fold
